Data from patent US20110288115A1, “TREATMENT OF VAGALLY-MEDIATED SPECTRUM DISORDERS” (AVMEDIS LLC, priority 2010, published 2011).

Legend:
[1] = tested on: patient suffering from alcohol dependence; test: Treatment of alcohol abuse in a patient with alcohol dependence; format: in vivo; conditions: person; 5 mg per day via nasal spray; within one month; patient report
Protocol: The patient is a person suffering from alcohol dependence and complaining of symptoms including abdominal pain, confusion, nausea and vomiting, neglecting to eat, and shaking in the morning. The patient is prescribed granisetron 5 mg per day taken via nasal spray.

[2] = tested on: patient with panic disorder; test: Treatment of panic disorder in a patient with a 5-HT3 receptor antagonist; format: in vivo; conditions: patient previously treated largely unsuccessfully with SSRIs, MAOIs, tricyclic antidepressants, benzodiazepines; 8 mg/day to 30 mg/day for 5 to 60 days
Protocol: A patient presents with symptoms including rapid heartbeat, perspiration, dizziness, dyspnea, trembling, uncontrollable fear, and hyperventilation, indicative of panic disorder. The patient has previously been treated, largely unsuccessfully, with selective serotonin reuptake inhibitors (SSRIs), monoamine oxidase inhibitors (MAOIs), tricyclic antidepressants, and benzodiazepines. The patient is treated for 5 to 60 days sequentially with ondansetron administered at a dose of 8 mg/day to 30 mg/day.

Row | Structure (SMILES) | control over drinking [1] | improvement of symptoms (abdominal pain, confusion, nausea and vomiting, neglecting to eat, shaking in the morning) [1] | amelioration of panic disorder (severity and frequency of panic attacks and their symptoms) [2]
1 | CN1C2CCCC1CC(NC(=O)c1nn(C)c3ccccc13)C2 (stereo not drawn) [granisetron] | able to exert control over their drinking | all of the above symptoms have improved considerably | 
2 | Cc1nccn1CC1CCc2c(c3ccccc3n2C)C1=O (stereo not drawn) [ondansetron, 1,2,3,9-tetrahydro-9-methyl-3-[(2-methyl-1H-imidazol-1-yl]methyl]-4H-carbazol-4-one] |  |  | long-lasting amelioration of panic disorder
